Assay results: patent US7045513B1, “DHEA composition and method” (priority 1999, dated 2006)

Assays:
[1] = 14-day stress study of DHEA forms I and II, monitored by XRPD; type: physicochemical; conditions: for Stability (summary): ambient conditions and heat at non-saturating humidity; for Stability to solid form conversion: ambient temperature and 50° C., two weeks, RH as high as 84%
Description: Little weight gain (<0.8%) is observed in these samples. (Weight losses observed at 50° C. could be due to loss of residual solvent, sublimation of sample, and/or thermal degradation.)
X-Ray Powder Diffraction (XRPD). XRPD analyses were carried out on a Siemens D-500 X-ray Powder Diffractometer-Kristaloflex or a Shimadzu XRD-6000 X-ray powder diffractometer using Cu Kα radiation (1.5406 Å).
The Siemens instrument was equipped with an IBM-compatible interface and utilized DIFFRAC AT software (SOCABIM, 1994). Slits I and II were set at 1° and the radiation was electronically filtered by a Kevex Psi Peltier cooled silicon detector with slits III at 1° and IV at 0.15°. A continuous theta-two theta scan at 6°/min (0.4 sec/0.04° step) from 4 to 40°2θ was used. A silicon standard was analyzed each day to check the instrument alignment. Each sample was prepared by pressing a small amount of the powder onto a zero-background quartz-in-aluminum sample holder.
The Shimadzu instrument was equipped with a fine-focus X-ray tube. The tube power was set at 40 kV, 40 mA. The divergence and scattering slits were set at 1° and the receiving slit was set at 0.15 mm. Diffracted radiation was detected by an NaI scintillation detector. A theta-two theta continuous scan at 3°/min (0.4 sec/0.02° step) from 4 to 40°2θ was used. A silicon standard was analyzed each day to check the instrument alignment, and an alumina standard was analyzed each day to check the X-ray tube output. Each sample was prepared for analysis by pressing it with a spatula onto a glass or quartz sample holder.

[2] = Single dose pharmacokinetic study of orally administered DHEA formulations; type: in vivo, human; conditions: conclusion drawn from the single dose study
Description: Example 2 describes a study in which 34 healthy postmenopausal women were administered orally one of three formulations of DHEA, each prepared from commercially available DHEA, in capsular form. The formulations were administered in single dosages of four opaque, size 2 capsules, each capsules containing 50 mg DHEA, 152 mg lactose (169 mg for formulation 3), 108 mg corn starch, and 3 mg magnesium stearate.
Blood samples were collected prior to and at various times after administration, and the levels of DHEA and DHEA-S were measured by immunoassay. […]
AUC (area under curve) is an indicator of extent of absorption; Cmax and Tmax are indicators of rate of absorption. Serum DHEA concentrations for all samples were above the assay limit of quantification. […]
DHEA levels were determined by radioimmunoassay (RIA) at Endocrine Sciences Inc., after non-polar solvent extraction. […] Internal assay controls were monitored via control charts. […]. […]
Adjusted serum levels were calculated by subtracting baseline (average of −0.5 hr and 0 hr serum levels). […] For DHEA and DHEA-S, the peak serum concentration (Cmax) and time to peak concentration (Tmax) were assessed from the concentration-time data. […]

[3] = Solid form stability of form I after 1, 2, 3 and 6 months, by 13C-SSNMR; type: physicochemical
Description: Solid State NMR Method (SSNMR). SSNMR spectra were obtained on a General Electric Omega PSG, 100 MHz spectrometer using about 50 mg of sample in a 5-mm diameter zirconia rotor. High-power proton decoupling and cross-polarization with magic-angle spinning at approximately 5 kHz were used. The magic angle was adjusted using the Br signal of KBr by detecting the side bands as described by Frye and Maciel, 1982. The chemical shifts were referenced externally to the CH resonance of adamantane at 29.50 ppm. Curve fitting of selected peaks for integration was performed as described by MacDonald (1980). The following peaks were used to measure forms I, II and VI: sum of peaks at 118.8 and 120.3 ppm (form I), peak at 119.8 ppm (form II), and peak at 118.5 ppm (form VI).

[4] = 25° C. (ambient temperature), 95% RH

SMILES | Final Form (by XRPD), 14 days [1, 4] | Wt change, % (14 days) ([1]; 25° C., 58% RH, 14 days) [%] | Wt change, % (14 days) ([1]; 25° C., 75% RH, 14 days) | Wt change, % (14 days) ([1]; 25° C., 84% RH, 14 days) | Wt change, % (14 days) ([1]; 25° C., 95% RH, 14 days) | Wt change, % (14 days) ([1]; 50° C., 58% RH, 14 days) [%] | Wt change, % (14 days) ([1]; 50° C., 75% RH, 14 days) [%] | Wt change, % (14 days) ([1]; 50° C., 84% RH, 14 days) [%] | Final Form (by XRPD), 14 days ([1]; 50° C., 95% RH) | Wt change, % (14 days) ([1]; 50° C., 95% RH, 14 days) | Stability (summary) [1] | Stability to solid form conversion [1] | Overall stability, form I compared with form II ([1]; summary of the stability studies) | Bioavailability when administered orally [2] | Final Form (by 13C-SSNMR), 1, 2, 3, and 6 months ([3]; 25° C., 58% RH) | Final Form (by 13C-SSNMR), 1, 2, 3, and 6 months ([3]; 40° C. (footnote b), 75% RH) | Final Form (by XRPD), 14 days ([1]; 50° C., 75% RH) | Final Form (by XRPD), 14 days ([1]; 50° C., 84% RH) | Solid form conversion ([1]; 50°, RH of 75% or greater, 14 days)
C[C@]12CC[C@H](O)CC1=CC[C@@H]1[C@@H]2CC[C@]2(C)C(=O)CC[C@@H]12 [Form I, dehydroepiandrosterone] | stable | −0.6 | +0.3% | +0.1% | +0.2% | −1 | −3 | −2 | converted to S2 | +1% | stable | stable to solid form conversion | greater overall stability | high bioavailability | remained stable to solid form conversion | remained stable to solid form conversion |  |  | 
C[C@]12CC[C@H](O)CC1=CC[C@@H]1[C@@H]2CC[C@]2(C)C(=O)CC[C@@H]12 [Form II, dehydroepiandrosterone] | converted to S2 | 0 | −0.3% | +0.2% | +5% | −1 | −2 | −0.3 | II + S1 | +1% | stable | stable to solid form conversion |  | high bioavailability |  |  | II + S1 | II + S1 | partially converted to S1
